Results: US8017652B2, “Activators of peroxisome proliferator-activated receptors” (Kowa Company Ltd., priority 2000, dated 2011)

Experiments:
PPAR α mRNA = assay: Expression of PPAR α mRNA in human cell line (RT-PCR); type: cell-based; conditions: Caco-2 cells, serum-free medium, 10 μM, 0-5 hours after addition, FIG. 1
Protocol: (§1) Caco-2 cells (derived from colon cancer) as a human cell line were cultured at 37° C. in RPMI-1640 medium containing 10% fetal calf serum in the presence of 5% C02. The medium was then replaced with serum-free RPMI-1640 medium and the cells were cultured for 48 hours. In order to examine the effect of NIK-333, a solution of NIK-333 in ethanol was added at a final concentration of 10 μM. At 0, 0.5, 1, 2 and 5 hours after the addition, RNA was extracted to observe. mRNA for PPAR α, PPAR γ1 and PPAR γ2 by the RT-PCR method.

PPAR γ2 mRNA = assay: Expression of PPAR γ2 mRNA in human cell line (RT-PCR); type: cell-based; conditions: Caco-2 cells, serum-free medium, 10 μM, 0-5 hours after addition
Protocol: as §1

PPAR γ1 mRNA = assay: Expression of PPAR γ1 mRNA in human cell line (RT-PCR); type: cell-based; conditions: Caco-2 cells, serum-free medium, 10 μM, 0-5 hours after addition, FIG. 2
Protocol: as §1

PPAR α = target: T1, PPAR α (Homo sapiens, UniProt Q07869); assay: Ligand activity for PPAR α (PPRE luciferase reporter in COS-7 cells); type: cell-based; conditions: 10 μM, 24 hours, FIG. 3; for luciferase activity, PPAR α expression vector not introduced (−) / luciferase activity, PPAR α expression vector introduced (+): firefly luciferase standardized by renilla luciferase; for luciferase activity, PPAR α expression vector introduced (+): RXR α + PPAR α + PPRE reporter
T1 construct: expressed in transfected cells; host or cells: COS-7 (monkey kidney)
T1 sequence (Q07869 1-468): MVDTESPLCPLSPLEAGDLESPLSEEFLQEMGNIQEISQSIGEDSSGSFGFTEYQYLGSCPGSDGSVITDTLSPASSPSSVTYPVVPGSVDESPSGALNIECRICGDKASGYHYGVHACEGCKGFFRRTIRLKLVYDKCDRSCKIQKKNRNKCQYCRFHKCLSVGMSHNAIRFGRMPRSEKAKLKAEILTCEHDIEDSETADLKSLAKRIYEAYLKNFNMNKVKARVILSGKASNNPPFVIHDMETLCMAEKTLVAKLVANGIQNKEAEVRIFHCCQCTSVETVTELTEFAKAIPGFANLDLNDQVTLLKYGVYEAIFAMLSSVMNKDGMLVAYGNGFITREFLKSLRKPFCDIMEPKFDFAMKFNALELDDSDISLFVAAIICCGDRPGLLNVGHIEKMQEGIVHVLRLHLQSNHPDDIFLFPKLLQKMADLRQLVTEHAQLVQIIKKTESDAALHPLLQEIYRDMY
T1 sequence (P19793 1-462 partner): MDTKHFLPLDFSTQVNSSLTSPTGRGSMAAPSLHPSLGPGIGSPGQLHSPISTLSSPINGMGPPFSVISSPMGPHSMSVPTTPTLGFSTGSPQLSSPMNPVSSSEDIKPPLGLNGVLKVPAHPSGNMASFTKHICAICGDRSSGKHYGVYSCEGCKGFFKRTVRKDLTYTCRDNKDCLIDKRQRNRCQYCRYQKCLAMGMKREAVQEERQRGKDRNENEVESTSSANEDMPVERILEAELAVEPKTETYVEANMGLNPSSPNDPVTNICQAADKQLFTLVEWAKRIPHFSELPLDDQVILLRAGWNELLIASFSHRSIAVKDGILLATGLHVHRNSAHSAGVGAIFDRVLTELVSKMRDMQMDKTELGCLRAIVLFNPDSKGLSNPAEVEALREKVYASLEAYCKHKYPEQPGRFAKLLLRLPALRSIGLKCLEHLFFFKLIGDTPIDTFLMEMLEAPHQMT
Protocol: COS-7 cells, a cell line derived from monkey kidney, were cultured at 37° C. in DMEM medium containing 10% fetal calf serum in the presence of 5% CO2. Then, expression vectors of RXR α (retinoic acid X receptor α) and PPAR α, and a reporter vector incorporated with PPRE (peroxisome proliferator-responsive element) as a PPAR-responsive element were cotransfected into the cells, and the cells were cultured for 24 hours. In order to examine the effect of NIK-333, a solution of NIK-333 or Wy-14643(selective agonist of PPAR α) in ethanol was added at a final concentration of 10 μM. After cultivation for 24 hours, the activity of firefly luciferase was measured. The measured values were represented as values standardized by using the renilla luciferase activity.

hepatoma = conditions: clinical, cited from earlier work

luciferase activity, PPAR α expression vector introduced (+) (PPAR α) | SMILES | expression of PPAR α mRNA (PPAR α mRNA) | expression of PPAR γ2 mRNA (PPAR γ2 mRNA) | expression of PPAR γ1 mRNA (PPAR γ1 mRNA) | increasing action of ligand activity compared with Wy-14643 (PPAR α) | luciferase activity, PPAR α expression vector not introduced (−) (PPAR α) | recurrence of hepatoma after radical treatment (hepatoma; long-term administration for one-year) | liver function failure or other adverse effect during the administration (hepatoma; long-term administration)
increased the luciferase activity | CC(C)=CCC/C(C)=C/CC/C(C)=C/C=C/C(C)=C/C(=O)O [NIK-333, (2E,4E,6E,10E)-3,7,11,15-Tetramethyl-2,4,6,10,14-hexadecapentaenoic acid] | observed from 0.5 hour after the addition | not observed | also observed from 0.5 hour after the addition | almost equivalent to the action of Wy-14643 | failed to increase the luciferase activity | significantly inhibited recurrence of hepatoma | almost no liver function failure or almost no other adverse effect
increased the luciferase activity | Cc1cccc(Nc2cc(Cl)nc(SCC(=O)O)n2)c1C [Wy-14643, reference compound] | – | – | – | – | failed to increase the luciferase activity | – | –
